Legend:
[1] = test system: proteolytic degradation of sCTgly in conditioned fermentation medium; experiment: Protease inhibitors tested for ability to reduce proteolytic degradation of sCTgly in conditioned medium; type: biochemical, E. coli; conditions: 30° C.
Protocol: Conditioned medium samples from both UGL165 (E. coli BLR transformed with pSCT 029) and UGL703 (E. coli BLR transformed with pSCT 038) Direct Expression fermentations were tested for loss of sCTgly following removal of cells and incubation of the medium spiked with sCTgly at 30° C. The concentration of sCTgly in conditioned fermentation medium was measured by CEX HPLC.

[2] = target: T1, E. coli Protease III (zinc metalloprotease) in fermentation medium (Escherichia coli, UniProt P05458); experiment: Divalent cation specificity of sCTgly degradation in fermentation medium (EDTA, MgCl2, ZnCl2); type: biochemical; conditions: 15 mM added to EDTA (50 mM) pre-treated medium, 30° C., 4 hrs
T1 construct: E. coli Protease III is a periplasmic/extracellular zinc metalloprotease; endogenous in cells; host or cells: E. coli BLR (UGL703 / UGL165), cell-free conditioned fermentation medium
T1 sequence (P05458 24-962): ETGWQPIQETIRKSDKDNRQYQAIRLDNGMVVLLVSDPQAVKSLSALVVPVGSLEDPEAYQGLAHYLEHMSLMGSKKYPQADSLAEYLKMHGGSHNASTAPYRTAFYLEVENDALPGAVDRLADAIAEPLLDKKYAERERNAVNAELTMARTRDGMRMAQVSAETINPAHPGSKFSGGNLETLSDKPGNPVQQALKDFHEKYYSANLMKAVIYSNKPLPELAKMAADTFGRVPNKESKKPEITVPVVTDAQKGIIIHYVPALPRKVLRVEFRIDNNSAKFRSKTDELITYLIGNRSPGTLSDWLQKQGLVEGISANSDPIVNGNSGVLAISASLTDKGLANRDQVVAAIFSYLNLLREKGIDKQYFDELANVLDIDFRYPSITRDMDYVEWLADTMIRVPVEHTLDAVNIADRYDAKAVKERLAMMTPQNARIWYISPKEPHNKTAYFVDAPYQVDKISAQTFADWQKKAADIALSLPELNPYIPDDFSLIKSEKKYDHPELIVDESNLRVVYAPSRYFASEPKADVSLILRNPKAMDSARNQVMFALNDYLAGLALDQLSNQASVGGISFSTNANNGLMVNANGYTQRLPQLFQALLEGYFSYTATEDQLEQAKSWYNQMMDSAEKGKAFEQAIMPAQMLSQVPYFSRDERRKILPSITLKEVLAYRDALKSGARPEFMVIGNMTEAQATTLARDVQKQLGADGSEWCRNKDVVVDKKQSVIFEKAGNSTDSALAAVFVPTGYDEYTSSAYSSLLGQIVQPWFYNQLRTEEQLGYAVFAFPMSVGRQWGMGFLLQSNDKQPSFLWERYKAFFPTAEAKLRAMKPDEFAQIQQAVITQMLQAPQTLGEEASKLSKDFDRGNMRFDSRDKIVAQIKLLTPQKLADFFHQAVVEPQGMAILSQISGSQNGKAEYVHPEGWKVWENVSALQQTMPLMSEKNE

Molecule	ability to reduce or eliminate proteolytic degradation of sCTgly [1]	reactivation of proteolytic activity by divalent cation [2]
CC(C)C[C@H](NC(=O)[C@@H](O)[C@H](N)Cc1ccccc1)C(=O)O [Bestatin]	Only EDTA was able to reduce the proteolytic degradation of sCTgly	–
[Cl-].[Cl-].[Mg+2] [MgCl2]	–	magnesium was not
[Cl-].[Cl-].[Zn+2] [ZnCl2]	–	zinc was effective
α2-macroglobulin: protease inhibitor (protein, UniProt P01023 24-1474, looked up) Alpha-2-macroglobulin: SVSGKPQYMVLVPSLLHTETTEKGCVLLSYLNETVTVSASLESVRGNRSLFTDLEAENDVLHCVAFAVPKSSSNEEVMFLTVQVKGPTQEFKKRTTVMVKNEDSLVFVQTDKSIYKPGQTVKFRVVSMDENFHPLNELIPLVYIQDPKGNRIAQWQSFQLEGGLKQFSFPLSSEPFQGSYKVVVQKKSGGRTEHPFTVEEFVLPKFEVQVTVPKIITILEEEMNVSVCGLYTYGKPVPGHVTVSICRKYSDASDCHGEDSQAFCEKFSGQLNSHGCFYQQVKTKVFQLKRKEYEMKLHTEAQIQEEGTVVELTGRQSSEITRTITKLSFVKVDSHFRQGIPFFGQVRLVDGKGVPIPNKVIFIRGNEANYYSNATTDEHGLVQFSINTTNVMGTSLTVRVNYKDRSPCYGYQWVSEEHEEAHHTAYLVFSPSKSFVHLEPMSHELPCGHTQTVQAHYILNGGTLLGLKKLSFYYLIMAKGGIVRTGTHGLLVKQEDMKGHFSISIPVKSDIAPVARLLIYAVLPTGDVIGDSAKYDVENCLANKVDLSFSPSQSLPASHAHLRVTAAPQSVCALRAVDQSVLLMKPDAELSASSVYNLLPEKDLTGFPGPLNDQDNEDCINRHNVYINGITYTPVSSTNEKDMYSFLEDMGLKAFTNSKIRKPKMCPQLQQYEMHGPEGLRVGFYESDVMGRGHARLVHVEEPHTETVRKYFPETWIWDLVVVNSAGVAEVGVTVPDTITEWKAGAFCLSEDAGLGISSTASLRAFQPFFVELTMPYSVIRGEAFTLKATVLNYLPKCIRVSVQLEASPAFLAVPVEKEQAPHCICANGRQTVSWAVTPKSLGNVNFTVSAEALESQELCGTEVPSVPEHGRKDTVIKPLLVEPEGLEKETTFNSLLCPSGGEVSEELSLKLPPNVVEESARASVSVLGDILGSAMQNTQNLLQMPYGCGEQNMVLFAPNIYVLDYLNETQQLTPEIKSKAIGYLNTGYQRQLNYKHYDGSYSTFGERYGRNQGNTWLTAFVLKTFAQARAYIFIDEAHITQALIWLSQRQKDNGCFRSSGSLLNNAIKGGVEDEVTLSAYITIALLEIPLTVTHPVVRNALFCLESAWKTAQEGDHGSHVYTKALLAYAFALAGNQDKRKEVLKSLNEEAVKKDNSVHWERPQKPKAPVGHFYEPQAPSAEVEMTSYVLLAYLTAQPAPTSEDLTSATNIVKWITKQQNAQGGFSSTQDTVVALHALSKYGAATFTRTGKAAQVTIQSSGTFSSKFQVDNNNRLLLQQVSLPELPGEYSMKVTGEGCVYLQTSLKYNILPEKEEFPFALGVQTLPQTCDEPKAHTSFQISLSVSYTGSRSASNMAIVDVKMVSGFIPLKPTVKMLERSNHVSRTEVSSNHVLIYLDKVSNQTLSLFFTVLQDVPVRDLKPAIVKVYDYYETDEFAIAEYNAPCSKDLGNA	Only EDTA was able to reduce the proteolytic degradation of sCTgly	–
